Some test systems named below: SK-MEL-28; MOLT-4; MDA-MB-231; HOP-62; LOX IMVI; T47D; OVCAR-5; HL-60; SR; HT-29; OVCAR-8; ACHN; MCF7; SK-MEL-5; DU-145; SK-MEL-2; KM12; IGROV-1; UACC-257; Malme-3M.
Holding throughout (test): DTP human tumour cell line panel, 48 h

The structures appear in SMILES notation.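 Each compound was tested at five concentrations against cells in 96-well plates for 48 hours. At the GI50, growth is halved.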 Active and inactive are the calls of the source. Cut-off read from the data, not from the text of the source: active = GI50 up to about 1.1 µM and inactive = higher.

As to `S=C(N/N=C(/c1ccccc1)c1ccccn1)N(Cc1ccccn1)Cc1ccccn1`, the GI50 (as a rule, the concentration at which growth is held to half of that of the control) was 1.05 µM (active) with SK-MEL-28; < 0.0302 µM (active) in the assay on MOLT-4; < 0.0121 µM (active) with MDA-MB-231; 0.964 µM (active) with HOP-62; 0.0908 µM (active) in the assay on LOX IMVI; < 0.0177 µM (active) in the assay on T47D. The concentration for 50% growth inhibition (GI50) is 0.427 µM (active) in the assay with OVCAR-5; < 0.0443 µM (active) with HL-60; 0.906 µM (active) with SR; < 0.01 µM (active) in the assay on HT-29; < 0.01 µM (active) in the assay with OVCAR-8; 0.0418 µM (active) with ACHN. For the same molecule, the GI50 was < 0.01 µM (active) with MCF7; 0.358 µM (active) in the assay on SK-MEL-5; 0.564 µM (active) in the assay with DU-145; 1.28 µM (inactive) in the assay on SK-MEL-2; 0.432 µM (active) in the assay with KM12; < 0.01 µM (active) with IGROV-1. In addition, the GI50 in the assay with UACC-257 is 0.0425 µM (active); in the assay on Malme-3M, 0.0655 µM (active).
Regarding `C[C@H]1C2Cc3cc(N)ccc3[C@@]1(C)CCN2CCc1ccccc1`, the GI50 with SK-MEL-28 was > 100 µM (inactive); with MOLT-4, 20.4 µM (inactive); in the assay on MDA-MB-231, > 100 µM (inactive); in the assay on HOP-62 it was 39.5 µM (inactive); with LOX IMVI it was 20.2 µM (inactive); in the assay on T47D, 31.6 µM (inactive). In addition, the GI50 in the assay with OVCAR-5 is 74.6 µM (inactive); in the assay with HL-60 it was 28.9 µM (inactive); in the assay on SR, 19.3 µM (inactive); with HT-29, 6.49 µM (inactive); with OVCAR-8, 62.5 µM (inactive); in the assay with ACHN, 41.2 µM (inactive). For the same molecule, the GI50 was 25.2 µM (inactive) in the assay on MCF7; 18.3 µM (inactive) in the assay with SK-MEL-5; > 100 µM (inactive) with DU-145; 50.7 µM (inactive) with SK-MEL-2; 37.5 µM (inactive) with KM12; 41.9 µM (inactive) in the assay on IGROV-1. The GI50 is 30.7 µM (inactive) in the assay with UACC-257 and 17.7 µM (inactive) with Malme-3M.
In the case of `O=C1C=CC(=O)C(N(CCO)CCO)=C1.O=C1C=CC2(O)OCCN(CCO)C2=C1`, the GI50 in the assay with SK-MEL-28, with MOLT-4, with MDA-MB-231, with HOP-62, with LOX IMVI and with T47D was > 100 µM (inactive) in each case. For the same molecule, the GI50 was > 100 µM (inactive) in the assay with OVCAR-5; > 100 µM (inactive) in the assay with HL-60; 34.8 µM (inactive) in the assay on SR; > 100 µM (inactive) in the assay with HT-29; > 100 µM (inactive) in the assay with OVCAR-8; > 100 µM (inactive) in the assay on ACHN. Besides, the GI50 with MCF7, with SK-MEL-5, in the assay on DU-145, with SK-MEL-2, with KM12 and with IGROV-1 was > 100 µM (inactive) each time. Moreover, the GI50 in the assay on UACC-257 and in the assay on Malme-3M was > 100 µM (inactive) each time.
Turning to `COc1ccc(S(=O)(=O)Nc2ccc(-c3csc(N4C(=O)/C(=C/c5cccs5)N=C4c4ccccc4)n3)cc2)cc1Cl`, the GI50 was 65.5 µM (inactive) with SK-MEL-28; 32.8 µM (inactive) in the assay with MOLT-4; 32.4 µM (inactive) in the assay on MDA-MB-231; 4.08 µM (inactive) in the assay with HOP-62; 37 µM (inactive) in the assay with LOX IMVI; 19.9 µM (inactive) with T47D. Further, the GI50 was > 100 µM (inactive) in the assay with OVCAR-5; 24.5 µM (inactive) with HL-60; 28.6 µM (inactive) in the assay on SR; > 100 µM (inactive) in the assay on HT-29; 34 µM (inactive) with OVCAR-8; 35.4 µM (inactive) with ACHN. For the same molecule, the GI50 in the assay with MCF7 was 46.9 µM (inactive); with SK-MEL-5 it was 40.8 µM (inactive); with DU-145, 42.2 µM (inactive); in the assay on SK-MEL-2, 40.4 µM (inactive); with KM12 it was 49.1 µM (inactive); in the assay with IGROV-1, 30.5 µM (inactive). Also, the GI50 in the assay with UACC-257 is 46.3 µM (inactive); in the assay with Malme-3M, 32.3 µM (inactive).
With `CC[C@@]1(O)C(=O)OCc2c1cc1n(c2=O)Cc2c-1nc1ccccc1c2/C=N/NC(=O)C[N+](C)(C)C`, the GI50 in the assay with SK-MEL-28 was 15.4 µM (inactive); with MOLT-4, 0.207 µM (active); with MDA-MB-231 it was > 100 µM (inactive); with HOP-62, 0.359 µM (active); in the assay on LOX IMVI it was 0.824 µM (active); in the assay on T47D, 0.239 µM (active). Besides, the GI50 in the assay on OVCAR-5 is 30.4 µM (inactive); in the assay on HL-60, 0.668 µM (active); in the assay with SR, 0.0391 µM (active); in the assay on HT-29, 13.2 µM (inactive); with OVCAR-8, 1.98 µM (inactive); with ACHN, 0.277 µM (active). The GI50 is 0.192 µM (active) with MCF7; 1.5 µM (inactive) in the assay with SK-MEL-5; 0.458 µM (active) in the assay with DU-145; > 83.6 µM (inactive) in the assay with SK-MEL-2; > 53.8 µM (inactive) with KM12; 38.8 µM (inactive) in the assay with IGROV-1. Besides, the GI50 is 12.7 µM (inactive) with UACC-257 and 16.7 µM (inactive) in the assay on Malme-3M.
Regarding `Oc1ccccc1/C=N/c1ccc(-c2nc3ccccc3[nH]2)cc1`, the GI50 in the assay on SK-MEL-28 was > 100 µM (inactive); with MOLT-4 it was 21.3 µM (inactive); with MDA-MB-231 it was 40.5 µM (inactive); in the assay with HOP-62, > 100 µM (inactive); in the assay with LOX IMVI, > 100 µM (inactive); in the assay on T47D it was 10.4 µM (inactive). The GI50 was > 100 µM (inactive) in the assay with OVCAR-5; 25.2 µM (inactive) with HL-60; 44.7 µM (inactive) in the assay with SR; 81.8 µM (inactive) in the assay with HT-29; 47.1 µM (inactive) with OVCAR-8; > 100 µM (inactive) with ACHN. Besides, the GI50 was 20.7 µM (inactive) with MCF7; 27.8 µM (inactive) with SK-MEL-5; 65.8 µM (inactive) in the assay on DU-145; > 100 µM (inactive) in the assay with SK-MEL-2; 43.3 µM (inactive) in the assay with KM12; 28.4 µM (inactive) in the assay on IGROV-1. In addition, the GI50 was 47.8 µM (inactive) in the assay on UACC-257 and 93.3 µM (inactive) in the assay on Malme-3M.
For `CCOC(=O)/C=C(/C(=O)OCC)n1cc(Cl)c(=O)n(CC(=O)OCC)c1=O`, the GI50 was 5.02 µM (inactive) with SK-MEL-28; 1.15 µM (inactive) with MOLT-4; 5.71 µM (inactive) in the assay with MDA-MB-231; 22.4 µM (inactive) with HOP-62; 4.37 µM (inactive) in the assay on LOX IMVI; 4.81 µM (inactive) in the assay with T47D. In addition, the GI50 in the assay on OVCAR-5 was 4.52 µM (inactive); in the assay with HL-60 it was 3.85 µM (inactive); in the assay on SR it was 5.24 µM (inactive); with HT-29 it was 4.56 µM (inactive); in the assay on OVCAR-8, 4.53 µM (inactive); in the assay on ACHN it was 3.4 µM (inactive). Moreover, the GI50 in the assay on MCF7 is 22.9 µM (inactive); in the assay on SK-MEL-5, 5.66 µM (inactive); in the assay with DU-145, 4.61 µM (inactive); in the assay with SK-MEL-2 it was 4.84 µM (inactive); in the assay with KM12 it was > 25 µM (inactive); in the assay on IGROV-1, 4.76 µM (inactive). Further, the results for the GI50 in the assay on UACC-257 and in the assay with Malme-3M were 4.94 µM (inactive) and 6.11 µM (inactive), respectively.
With `O=C1Nc2ccc(Br)cc2/C1=N/Nc1ccccc1[N+](=O)[O-]`, the GI50 is 19.7 µM (inactive) in the assay with SK-MEL-28; 42.9 µM (inactive) in the assay on MOLT-4; 1.92 µM (inactive) in the assay with MDA-MB-231; 11.4 µM (inactive) in the assay on HOP-62; 15.2 µM (inactive) in the assay on LOX IMVI; 29.9 µM (inactive) with T47D. The GI50 with OVCAR-5 is 12.7 µM (inactive); in the assay with HL-60 it was 33.2 µM (inactive); in the assay with SR, 10.2 µM (inactive); with HT-29 it was 13.8 µM (inactive); with OVCAR-8, 17.2 µM (inactive); with ACHN, 3.83 µM (inactive). Also, the GI50 was 20.8 µM (inactive) in the assay on MCF7; 8.63 µM (inactive) in the assay on SK-MEL-5; 12.2 µM (inactive) in the assay with DU-145; 25.2 µM (inactive) in the assay with SK-MEL-2; 8.2 µM (inactive) with KM12; 0.261 µM (active) in the assay on IGROV-1. Besides, the GI50 was 13.3 µM (inactive) in the assay on UACC-257 and 13.6 µM (inactive) in the assay on Malme-3M.
Consider `CN(C)CCNC(=O)c1cccc2nc3c(C(=O)NCCN(C)C)cccc3nc12`, for which the GI50 in the assay with SK-MEL-28 is 2.03 µM (inactive); in the assay with MOLT-4 it was 0.43 µM (active); in the assay on MDA-MB-231, 1.14 µM (inactive); in the assay on HOP-62, 1.31 µM (inactive); in the assay with LOX IMVI, 0.366 µM (active); in the assay on T47D, 4.34 µM (inactive). Also, the GI50 in the assay on OVCAR-5 was 2.3 µM (inactive); in the assay on HL-60, 0.713 µM (active); with SR, 0.368 µM (active); with HT-29, 0.321 µM (active); in the assay on OVCAR-8, 0.421 µM (active); in the assay with ACHN, 0.668 µM (active). In addition, the 50% growth inhibitory concentration (GI50) with MCF7 was 0.706 µM (active); with SK-MEL-5, 1.56 µM (inactive); in the assay with DU-145 it was 1.37 µM (inactive); in the assay with SK-MEL-2, 1.77 µM (inactive); in the assay with KM12 it was 1.26 µM (inactive); with IGROV-1, 1.78 µM (inactive). Further, the GI50 was 2.14 µM (inactive) in the assay with UACC-257 and 1.77 µM (inactive) in the assay on Malme-3M.
In the case of `C=CC(C)(C)NC(C(=O)N1CCC[C@H]1c1nc(-c2nc(C(=O)OCC=C(C)C)c(C)o2)c(C)o1)C(C)C` (stereo not given in full), the GI50 is > 66.1 µM (inactive) in the assay on SK-MEL-28; 47.5 µM (inactive) with MOLT-4; 47 µM (inactive) with MDA-MB-231; > 100 µM (inactive) with HOP-62; > 49.2 µM (inactive) in the assay with LOX IMVI; 74.8 µM (inactive) with T47D. Also, the GI50 with OVCAR-5 is > 76 µM (inactive); with HL-60 it was 17.1 µM (inactive); with SR it was 32.2 µM (inactive); with HT-29, > 52 µM (inactive); in the assay on OVCAR-8, > 58.6 µM (inactive); in the assay on ACHN, > 45.9 µM (inactive). Also, the GI50 is > 53.8 µM (inactive) in the assay with MCF7; 47.1 µM (inactive) in the assay with SK-MEL-5; > 84.7 µM (inactive) in the assay on DU-145; > 45.3 µM (inactive) in the assay with SK-MEL-2; > 54.2 µM (inactive) with KM12; 52.1 µM (inactive) with IGROV-1. Besides, the GI50 in the assay with UACC-257 was > 58.7 µM (inactive); with Malme-3M, > 100 µM (inactive).

The values above are taken from ChEMBL document CHEMBL1201862, “PubChem BioAssay data set” (2004).
